The source of these data is US20020155381A1, “Optical data carrier comprising a light-absorbent compound having a plurality of chromophoric centres in the information layer” (priority 2001, published 2002).

What all share (assay type): physicochemical
The nature of data set [1]: Solubility in coating solvent.
A short description of data set [2]: SiN vapour deposition on the organic film, apparent thickness of the organic film. How it is done: A layer of SiN was subsequently applied by vapour deposition on top of the layer which had been pretreated in the above-described manner. Vapour deposition was carried out by electric heating of Si3N4 in a molybdenum boat under reduced pressure. The pressure during the vapour deposition process was ˜10^−4 mbar, and the deposition rate was ˜4-5 Angström per second. To determine the complex index of refraction of the deposited SiN layer, control experiments were carried out on plain fused silica plates. The thickness of the SiN layer was determined by means of a profiler (Tencor Alpha Step 500 Surface Profiler). In turn, evaluation of the transmission and reflection spectra of the layer system taking into account the complex index of refraction and the thickness of the SiN layer enabled the apparent thickness of the organic film to be determined. It was 94 nm. […]
The transmission and reflection spectra of the layer systems film/fused silica or SiN/film/fused silica or SiN/fused silica were determined with perpendicular incidence of a parallel beam of light in a wavelength range of from 200 nm to 1 700 nm. […] The reflected light was detected at an angle of 172° relative to the direction of incidence. […] The index of refraction curve of the fused silica substrate in this spectral range was determined independently on an uncoated substrate.

A short description of data set [3]: Spin coating on fused silica support: film quality and film thickness from transmission and reflection spectra. The conditions noted are these: for kind of film obtained by spin coating: 1-2 parts of solid per 100 in TFP or THF; for film thickness: spin coated from 1 part of solid to 99 parts of TFP, before vacuum. How it is done: A 1/1 mixture (by mass) of substances of the following formulae was dissolved in tetrafluoropropanol (TFP) in a mass ratio of 2 parts of solid to 98 parts of TFP. […] Evaluation of the transmission and reflection spectra indicated a film thickness of 165 nm. [drawing 62]
(§1) Determination of the complex index of refraction and the thickness of the layer of the organic substances by means of transmission and reflection spectra:
(§2) The transmission and reflection spectra of the layer systems film/fused silica or SiN/film/fused silica or SiN/fused silica were determined with perpendicular incidence of a parallel beam of light in a wavelength range of from 200 nm to 1 700 nm. […] The reflected light was detected at an angle of 172° relative to the direction of incidence. Two different thicknesses of the organic film were in each case produced by spin coating. The thickness of the layer was adjusted by means of the solution concentration. The thicknesses were in the range from 50 nm to 500 nm. To evaluate the transmission and reflection spectra, the known Fresnel formulae were employed and the interferences caused by multiple reflection in the layer system were taken into account. A simultaneous least squares fit of the measured transmission and reflection spectra to the calculated spectra of the two layer systems of differing thickness enabled the layer thicknesses and the complex index of refraction of the organic substance to be determined at each wavelength. For this purpose, the index of refraction of the fused silica support has to be known. The index of refraction curve of the fused silica substrate in this spectral range was determined independently on an uncoated substrate.

Data set [4] is described as follows: Vacuum treatment of the spin-coated film (simulated sputtering conditions), layer thickness afterwards. Conditions: vacuum ~10^-6 mbar, 1 hour, room temperature. The method, then: This film was subjected to a vacuum (pressure ˜10^−6 mbar) for 1 hour at room temperature to simulate the conditions when applying metallic or dielectric layers by sputtering during the production of optical data carriers.
as §1, §2

In data set [1] (in TFP (tetrafluoropropanol)), `CN(CCC#N)c1ccc(/C=C/C2=[N+](CCCC[N+]3=C(/C=C/c4ccc(N(C)CCC#N)cc4)C(C)(C)c4ccccc43)c3ccccc3C2(C)C)cc1` [Example 13] had a solubility of 2%.

As to `Cc1ccc(/C=C(\C#N)C(=O)OCC(C)(COC(=O)/C(C#N)=C/c2ccc(C)o2)COC(=O)/C(C#N)=C/c2ccc(C)o2)o1` [Example V], the “change of the layer by the SiN vapour deposition process” value in data set [2] (SiN deposited at ~10^-4 mbar on vacuum-pretreated layer) is recorded as “the layer has not been changed”. The “apparent thickness of the organic film after SiN vapour deposition” value in data set [2] (SiN deposited at ~10^-4 mbar, ~4-5 Angström per second, on vacuum-pretreated layer) is reported as 160 nm. Further, in data set [3], the “kind of film obtained by spin coating” value is recorded as “transparent film” and the film thickness is 153 nm. In data set [4], the “retention of the substance after vacuum treatment” value was “virtually fully retained” and the “total thickness d of the layer after vacuum treatment” value is recorded as 143 nm.

For `COc1cc2c(cc1OC)C(C)(C)C/C2=C(/C#N)C(=O)OCCOC(=O)/C(C#N)=C1\CC(C)(C)c2cc(OC)c(OC)cc21` [Example II], in data set [3], the “kind of film obtained by spin coating” value is reported as “transparent film” and the film thickness amounted to 85 nm. Moreover, in data set [4], the “retention of the substance after vacuum treatment” value is recorded as “fully retained” and the “total thickness d of the layer after vacuum treatment” value is reported as 85 nm.

For `CC1(C)CC(=O)C(=Cc2ccc(N3CCN(c4ccc(C=C5C(=O)CC(C)(C)CC5=O)o4)CC3)o2)C(=O)C1` [Example 10], in data set [1] (in TFP (tetrafluoropropanol)), the solubility is 2%.

On to `CCN(CC)c1ccc(/C=C/c2cc[n+](Cc3ccccc3C[n+]3ccc(/C=C/c4ccc(N(CC)CC)cc4)cc3)cc2)cc1` [Example 12], for which, in data set [1] (in TFP (tetrafluoropropanol)), the solubility amounted to 2%.

Turning to `CN(CCOC(=O)CCC(=O)OCCN(C)c1ccc(C(C#N)=C(C#N)C#N)cc1)c1ccc(C(C#N)=C(C#N)C#N)cc1` [Example 5], in data set [1] (in TFP (tetrafluoropropanol)), the solubility was 1%.

Compound `N#C/C(=C\c1cccn1CCCn1cccc1/C=C(\C#N)c1ccccc1)c1ccccc1` [Example 9] had a solubility in data set [1] (in diacetone alcohol) of 2%.

With `CCCOC(=O)/C(C#N)=C/c1ccc(C)o1` [Example IV, reference compound], in data set [3], the “kind of film obtained by spin coating” value is “crystalline film”.
